Assay results from patent publication US6563009B1, “Vasodilator cannabinoid analogs” (priority 1999, dated 2003).
Where two headings read alike, the source gives them in different places.

How the values were obtained:
mesenteric arterial bed [1] = settings: cited from earlier work; for vasodilation: rat isolated / perfused mesenteric arterial bed
[2] = cited from earlier work; for neurobehavioral effects: summary statement, no dose
CB1 receptors [3] = target: T1, CB1 receptors (Rattus norvegicus, UniProt P20272); settings: cited from earlier work; for binding to CB1 receptors: summary statement, no concentration
T1 construct: from tissue; host or cells: rat brain P2 membranes
T1 sequence (P20272 whole entry): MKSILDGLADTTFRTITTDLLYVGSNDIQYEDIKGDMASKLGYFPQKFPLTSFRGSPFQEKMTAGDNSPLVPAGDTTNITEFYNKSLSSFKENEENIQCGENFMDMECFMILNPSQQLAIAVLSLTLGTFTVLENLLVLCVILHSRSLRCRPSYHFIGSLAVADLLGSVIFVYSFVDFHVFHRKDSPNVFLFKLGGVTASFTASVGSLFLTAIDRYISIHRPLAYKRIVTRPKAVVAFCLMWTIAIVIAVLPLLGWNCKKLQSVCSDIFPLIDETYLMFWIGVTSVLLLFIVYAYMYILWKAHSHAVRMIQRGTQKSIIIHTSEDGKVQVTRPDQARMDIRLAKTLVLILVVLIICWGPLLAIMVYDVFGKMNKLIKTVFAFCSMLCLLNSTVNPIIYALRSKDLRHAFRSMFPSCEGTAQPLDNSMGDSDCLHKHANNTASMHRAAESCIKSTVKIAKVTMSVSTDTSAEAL

vanilloid VRI receptors = vanilloid VRI receptors (Homo sapiens, UniProt Q8NER1); settings: cited from earlier work
Chain of vanilloid VRI receptors (Q8NER1 whole entry, the tested form may be a part): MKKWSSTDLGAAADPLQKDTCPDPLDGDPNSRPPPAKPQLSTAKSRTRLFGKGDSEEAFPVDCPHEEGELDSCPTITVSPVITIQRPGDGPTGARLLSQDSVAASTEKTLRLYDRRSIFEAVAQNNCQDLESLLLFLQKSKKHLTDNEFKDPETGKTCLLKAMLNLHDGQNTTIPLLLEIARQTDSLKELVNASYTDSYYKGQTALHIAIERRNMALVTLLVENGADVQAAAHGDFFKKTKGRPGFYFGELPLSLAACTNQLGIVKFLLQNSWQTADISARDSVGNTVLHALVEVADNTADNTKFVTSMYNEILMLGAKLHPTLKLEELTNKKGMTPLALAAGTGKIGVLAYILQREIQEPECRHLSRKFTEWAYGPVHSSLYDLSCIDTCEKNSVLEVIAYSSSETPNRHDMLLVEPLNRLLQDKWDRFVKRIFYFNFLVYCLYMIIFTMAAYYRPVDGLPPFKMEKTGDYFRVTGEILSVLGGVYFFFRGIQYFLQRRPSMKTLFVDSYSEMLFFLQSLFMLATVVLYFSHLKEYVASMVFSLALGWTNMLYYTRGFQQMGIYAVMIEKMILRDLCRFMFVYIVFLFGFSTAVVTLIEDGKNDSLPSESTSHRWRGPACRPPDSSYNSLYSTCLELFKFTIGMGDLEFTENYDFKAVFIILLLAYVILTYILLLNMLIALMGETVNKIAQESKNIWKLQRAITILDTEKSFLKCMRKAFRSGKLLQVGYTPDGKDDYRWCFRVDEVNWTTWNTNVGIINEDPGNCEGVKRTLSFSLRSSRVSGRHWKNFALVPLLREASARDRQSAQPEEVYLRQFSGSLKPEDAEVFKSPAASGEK

mesenteric vascular tone [4] = assay: Drug effects on mesenteric vascular tone in perfused mouse mesenteric area (phenylephrine-established tone); parameters: species or system mice; settings: antagonist at 10 μM in perfusion buffer, FIG. 2(A)
CB1 receptors [5] = target: T1, CB1 receptors; assay: 3H-CP-55,940 radioligand binding to P2 membranes from rat brain; settings: concentration of 10 μM
mesenteric vascular tone [6] = assay: Drug effects on mesenteric vascular tone in perfused mouse mesenteric area (phenylephrine-established tone); parameters: species or system mice; settings: for mesenteric vasodilation: injected intraarterially as a 1 mg bolus; for inhibition of 0-1848-induced vasodilation: FIG. 2(B), 2(C); for vasodilation (agonist effect): intra arterial bolus, dose-response, FIG. 1; for dose lower than the dose of Abn-cbd required to produce similar vasodilation: relative to Abn-cbd
Protocol: For measuring drug effects on mesenteric vascular tone in mice, sodium pentobarbital-anesthetized mice were laparotornized and a PE50 cannula was inserted distally into the abdominal aorta. Both renal and both femoral arteries were ligated, the heart removed, and the mesenteric area including the liver was perfused with oxygenated Krebs buffer at 36° C., using a peristaltic pump and a constant flow rate of 0.7 ml/min. Perfusion pressure monitored close to the inflow cannula was 25-30 mmHg, and was increased to 60-70 mmHg by the inclusion of 15 μM phenylephrine in the medium. Vasodilator effects were expressed as % relaxation of established tone, 100% being equal to the difference in perfusion pressure in the absence and presence of phenylephrine.
Perfusion pressure monitored near the inflow cannula should be 25-30 mmHg (1 mmHg[…]133 Pa) and is increased to 60-70 mmHg by the inclusion of […] phenylephrine in the medium. Vasodilation is expressed as percent relaxation of established tone, 100% being equal to the difference in perfusion pressure in the absence and presence of phenylephrine.
Evaluation of vasodilator response was performed as in Example 1 except that after addition of either the agonists 0-1602 (FIG. 2A) or 0-1848 (FIG. 2B-2C) as intra arterial bolus injections, the mesenteric preparation was perfused with either drug free buffer (solid circles) or buffer containing […].

[7] = Neurobehavioral tetrad (tail flick, locomotor activity, ring immobility, core body temperature); type: in vivo, mice
Text: The protocol of the tail-flick test was as follows. The apparatus that was used for the tail-flick test contained a light source placed directly above a photocell connected to a timer. The mouse was held under a cloth by the technician conducting the experiment. The tail of the test animal was placed over the photocell and the light was turned on. When the test animal felt the discomfort of the heat from the light, it was freely able to remove its tail from the lamp. The photocell than sensed that the tail had moved and the timer was stopped. The typical nontreatment reaction time for an animal subjected to this test was about 2-4 seconds. This test involved a spinal reflex action similar to the removal of a finger from a hot stove. In treated animals, the latency to remove the tail lengthens in proportion to the analgesic potency of the drug. No animal was allowed to remain under the lamp for greater than 10 seconds to prevent any burns to the tail. No animal was subjected twice to this test.
Locomotor activity, ring immobility, and core body temperature parameters were measured as described in detail by Smith et al. (J. Pharmacol. Exp.Ther. (1994) 270; 219-227). Briefly, spontaneous locomotor activity is expressed as % inhibition vs. control. Mice were placed in individual activity cages 5 minutes post treatment, and interruption of the photocell beams (16 beams/chamber) were recorded for a 10 minute period using a Digiscan Animal Activity Monitor (Omnitech). Core temperature was measured by a rectal thermistor inserted to 25 mm, before and 30 minutes after administration of Abn-cbd. Catalepsy (ring immobility procedure) was expressed as % of total time spent motionless. Test compound can be injected into a tail vain i.v., and measurements are performed at 5 min (spontaneous motility), min (tail flick latency), 60 min (Core temperature) or 90 min (ring immobility) after drug injection.
Adult ICR mice (25-30 g) were from Harlan (Indianapolis, Ind.). Both male and female animals were used for these studies. Animals were housed four at a cage with standard mouse chow and water ad libitum, and were maintained at […] under a 12:12 light:dark cycle.

mesenteric arterial bed [8] = assay: Vascular tone in isolated mesenteric arterial bed, with or without antagonist or endothelial denudation; parameters: species or system rat; settings: 100 μg, species not given
Protocol: The methods used to analyze drug effects on vascular tone in the rat isolated mesenteric arterial bed and to achieve endothelial denudation by brief perfusion with distilled water have been described in detail elsewhere (Wagner et al.(1999), Hypertension 33 (Part II), 429-434). Because of the long lasting vasodilator effect of anandamide, R-methanandamide and abnormal cannabidiol, each preparation was tested with a single dose of the agonist, either in the absence or the presence of an antagonist.

[9] = 10 mg/kg i.v., anesthetized mice; prevented by 3 mg/kg SR141716A; cited from earlier work
[10] = 10 mg/kg i.v., anesthetized rats; prevented by 3 mg/kg SR141716A; cited from earlier work
[11] = Blood pressure in urethane-anaesthetized spontaneous hypertensive (SHR) rats; type: in vivo; settings: 5 animals

C=C(C)[C@@H]1CCC(C)=C[C@H]1c1c(O)cc(CCCCC)cc1O [cannabidiol]
antagonism of the vasodilator effect of Abn-cbd (mesenteric arterial bed [1]; species not stated): able to antagonize | mesenteric vasodilation (mesenteric arterial bed [1]; species not stated): does not elicit mesenteric vasodilation | neurobehavioral effects [2]: devoid of neurobehavioral effects | binding to CB1 receptors (CB1 receptors [3]): does not bind

Oc1cc2c(cc1O)CN(C(=S)NCCc1ccc(Cl)cc1)CCC2 [capsazepine]
Kd (vanilloid VRI receptors): 285 nM

CCCCCc1cc(O)c2c(c1)OC(C)(C)[C@@H]1CCC(C)=C[C@@H]21 [THC, Δ9-trahydrocannabinol]
vasodilation (mesenteric arterial bed [1]): do not have a vasodilator effect

C=C(C)[C@@H]1CCC(C)=CC1c1c(O)cc(C)cc1O (single isomer, unassigned; (-)) [0-1821, (−)-2-(3-3,4-trans-p-menthadien-(1,8)-orcinol]
inhibition of the vasodilatory effect of compound 0-1602 (mesenteric vascular tone [4]): almost complete inhibition | binding to CB1 receptors (CB1 receptors [5]): no significant binding | inhibition of 0-1602-induced vasodilation (mesenteric vascular tone [6]; FIG. 2(A), antagonist in perfusion buffer): dose-dependent pronounced inhibition | mesenteric vasodilation (mesenteric vascular tone [6]): did not elicit vasodilation | response in the tetrad of standard neurobehavioral effects ([7]; 30 μg/kg): does not elicit a response

C=C(C)[C@@H]1CCC(C)=CC1c1c(O)cccc1O (some centres unmarked) [0-1847]
binding to CB1 receptors (CB1 receptors [5]): no significant binding | inhibition of 0-1848-induced vasodilation (mesenteric vascular tone [6]; antagonist in perfusion buffer): dose-dependent pronounced inhibition | mesenteric vasodilation (mesenteric vascular tone [6]): did not elicit mesenteric vasodilation | response in the tetrad of standard neurobehavioral effects ([7]; 30 μg/kg): does not elicit a response

Cc1c(C(=O)c2cccc3ccccc23)c2cccc3c2n1[C@H](CN1CCOCC1)CO3 [WIN 55212-2]
vasodilation (mesenteric arterial bed [1]): do not have a vasodilator effect

C=C(C)[C@@H]1CCC(C)=CC1c1c(C)cc(O)cc1O (some centres unmarked) [0-1602]
vasodilation (agonist effect) (mesenteric vascular tone [6]): dose-dependent pronounced vasodilation | dose lower than the dose of Abn-cbd required to produce similar vasodilation (mesenteric vascular tone [6]): 80 × | response in the tetrad of standard neurobehavioral effects ([7]; dose not given): does not elicit a response | vasodilation after endothelial denudation (mesenteric arterial bed [8]; n=3, P<0.005): 18%±2 | vasodilation in the presence of SR141716A (mesenteric arterial bed [8]; n=3, P<0.005): 15%±3 | vasodilation (mesenteric arterial bed [8]; n=4): 54%±2

CCCCC/C=C\C/C=C\C/C=C\C/C=C\CCCC(=O)NCCO [anandamide, arachidonyl ethanolamide]
vasodilation (mesenteric arterial bed [1]): elicits prolonged vasodilation

C=C(C)[C@@H]1CCC(C)=CC1c1c(O)cc(O)cc1CCCCC (single isomer, unassigned; (-)) [Abn-cbd, (−)-4-(3-3,4-trans-p-menthadien-1,8)-yl-olivetol]
vasodilator response in the presence of L-NAME and indomethacin (mesenteric arterial bed [1]; 100 μM L-NAME and 10 μM indomethacin in the perfusion buffer): remains unchanged | vasodilation in the presence of capsazepine (mesenteric arterial bed [1]; bolus injection of 4 mg, 5 μM capsazepine): same long lasting vasodilation | vasodilation (mesenteric arterial bed [1]): caused vasodilation | marijuana-like neurobehavioral effects ([2]; doses up to 60 mg/kg, mice): does not cause marijuana-like neurobehavioral effects | neurobehavioral effects [2]: does not elicit cannabinoid-like neurobehavioral effects | hypotension [9]: cause hypotension | hypotension [10]: cause hypotension | displacement of a potent known ligand from CB1 cannabinoid receptors (CB1 receptors [3]; concentrations up to 100 uM, rat brain plasma membrane preparation): failed to displace | binding to CB1 receptors (CB1 receptors [3]): does not bind

C=C(C)[C@@H]1CCC(C)=CC1c1ccc(O)cc1O (some centres unmarked) [0-1848]
vasodilation (agonist effect) (mesenteric vascular tone [6]): dose-dependent pronounced vasodilation | dose lower than the dose of Abn-cbd required to produce similar vasodilation (mesenteric vascular tone [6]): 80 × | response in the tetrad of standard neurobehavioral effects ([7]; dose not given): does not elicit a response | hypotensive effect (reduction in mean blood pressure) [11]: elicits a hypotensive effect

C=C(C)[C@@H]1CCC(C)=CC1c1c(O)c(I)c(C)c(I)c1O (single isomer, unassigned; (-)) [0-1868, (−)-2-(3-3,4-trans-p-menthadien-(1,8)-4,6-diiodoorcinol]
binding to CB1 receptors (CB1 receptors [5]): no significant binding | inhibition of 0-1848-induced vasodilation (mesenteric vascular tone [6]; antagonist in perfusion buffer): dose-dependent pronounced inhibition | mesenteric vasodilation (mesenteric vascular tone [6]): did not elicit mesenteric vasodilation | response in the tetrad of standard neurobehavioral effects ([7]; 30 μg/kg): does not elicit a response

CCCCCCC(C)(C)c1cc(O)c2c(c1)OC(C)(C)[C@@H]1CC=C(CO)C[C@@H]21 [HU-210]
vasodilation (mesenteric arterial bed [1]): do not have a vasodilator effect
